{"source": "patent US11866689B2", "about": "“Splice-switching oligonucleotides and methods of use” (Duke University, priority 2018, dated 2024)", "type_in_all_cases": "cell-based", "key": {"ARv7 [1]": {"system": "ARv7", "experiment": "ARv7 level after SSO transfection of prostate cancer cells (RT-qPCR, Western blot)", "conditions": "for ARv7 (fold change from Scramble): vs Scramble/Scr control", "method": "A total of 6.25, 25, 100, or 400 nM of ARv7 SSO-6, 100 nM of ARv7 SSO-6ext, or 100 or 400 nM of Scrambled SSO was diluted in Opti-MEM and mixed with 2 uL Dharmafect 1 (LN95) or RNAiMax (VCaP) diluted in Opti-MEM for a total of 200 uL. The SSO-transfection reagent mixtures were incubated for 10 minutes at room temperature followed by plating in a 12 well plate. A total of 250,000 cells diluted in 800 uL Optimem were seeded atop the SSO-transfection reagent mixtures and incubated for 4 hours at 37° C. and 5% CO2 in a humidified incubator. Media was replaced with complete media after 4 hours (RPMI+10% charcoal stripped FBS for LN95 cells and DMEM+10% FBS for VCaP cells). After an additional 72 or 96 hours of incubation, media was removed and cells were collected in RNA lysis buffer or RIPA buffer containing protease inhibitor (Thermo Fisher).\nRNA was extracted using the Quick-RNA Miniprep kit (Zymo Research) following manufacturer's protocol. RNA was eluted in water and quantified using a Qubit fluorometer (Thermo Fisher). Reverse transcription (RT) reactions were performed using the ABI High Capacity cDNA Reverse Transcription Kit (Thermo Fisher) using 1 ug of RNA. RT reactions were incubated following manufacturer's protocol in a SimpliAmp thermocycler (Life Technologies). […] RT-qPCR was run on a ViiA7 Real-Time PCR System (Applied Biosystems) using the following conditions: 95° C. for 2 minutes, 40×(95 C for 1 second, 60° C. for 20 seconds). Fold Change from Scramble was calculated using the 2^-ΔΔCT method with TBP as the housekeeping gene and the Scrambled SSO as the treatment control.\nRNA was extracted using the Quick-RNA Miniprep kit (Zymo Research) following manufacturer's protocol. RNA was eluted in water and quantified using a Qubit fluorometer (Thermo Fisher). […] Fold Change from Scramble was calculated using the 2^-ΔΔCT method with TBP as the housekeeping gene and the Scrambled SSO as the treatment control."}, "ARv9": {"system": "ARv9", "experiment": "ARv9 level after SSO transfection of prostate cancer cells", "conditions": "prostate cancer cell lines LN95, VCaP; 6.25-400 nM transfected; vs Scramble/Scr control; FIG. 2", "experimental": "(§1) For FIGS. 2 and 3, the experimental methods is described briefly. A total of 6.25, 25, 100, or 400 nM of ARv7 SSO-6, 100 nM of ARv7 SSO-[…], or 100 or 400 nM of Scrambled SSO was diluted in Opti-MEM and mixed with 2 uL Dharmafect 1 (LN95) or RNAiMax (VCaP) diluted in Opti-MEM for a total of 200 uL. The SSO-transfection reagent mixtures were incubated for 10 minutes at room temperature followed by plating in a 12 well plate. A total of 250,000 cells diluted in 800 uL Optimem were seeded atop the SSO-transfection reagent mixtures and incubated for 4 hours at 37° C. and 5% CO2 in a humidified incubator. Media was replaced with complete media after 4 hours (RPMI+10% charcoal stripped FBS for LN95 cells and DMEM+10% FBS for VCaP cells). After an additional 72 or 96 hours of incubation, media was removed and cells were collected in RNA lysis buffer or RIPA buffer containing protease inhibitor (Thermo Fisher). […] RNA was eluted in water and quantified using a Qubit fluorometer (Thermo Fisher). […] Fold Change from Scramble was calculated using the 2^-ΔΔCT method with TBP as the housekeeping gene and the Scrambled SSO as the treatment control. Protein samples were quantified using a Bradford assay (Pierce Scientific) and 25 ug of each cell extract was mixed with SDS sample buffer and submitted to SDS-PAGE. […]"}, "LN95 cells": {"system": "LN95 cells", "experiment": "Prostate cancer cell proliferation (Incucyte % confluence) after SSO transfection", "conditions": "100 nM, transfected twice, 7 days, −/+ enzalutamide, vs Scr, FIG. 4", "experimental": "As depicted in FIG. 4, ARv7 SSO-6 inhibits prostate cancer cell (LN95) proliferation. Briefly, a total of 100 nM of ARv7 SSO-6 or 100 nM of Scrambled SSO was diluted in Opti-MEM and mixed with 2 uL Dharmafect 1 for a total of 200 uL. The SSO-transfection reagent mixtures were incubated for 10 minutes at room temperature followed by plating in a 12 well plate. A total of 250,000 LN95 cells diluted in 800 uL Optimem were seeded atop the SSO-transfection reagent mixtures and incubated for 4 hours at 37 C and 5% CO2 in a humidified incubator. Media was replaced with complete media after 4 hours (RPMI+10% charcoal stripped FBS). 72 hours later cells were lifted using 0.25% trypsin and the transfection procedure was repeated. 4 hours after transfection media was replaced with complete media and cells were gently resuspended by pipetting up and down. Cells were then seeded in to a 96 well plate at 10,000 cells/well and the plate was placed in to the Incucyte S3 live cell imager (Essen Bioscience) and incubated at 37° C. and 5% CO2 for 7 days. % confluence was calculated once per day and fold change from 0 hr was calculated for each time point."}, "full length AR [2]": {"system": "full length AR", "experiment": "Full length AR level after SSO transfection of prostate cancer cells (RT-qPCR, Western blot)", "conditions": "prostate cancer cell lines LN95, VCaP; 6.25-400 nM transfected; vs Scramble/Scr control; FIG. 2", "experimental": "as §1"}, "ARv7 [3]": {"system": "ARv7", "experiment": "ARv7 level after morpholino treatment of LN95 cells (RT-qPCR)", "conditions": "0-2.5 uM in complete media, 72 h, FIG. 6A", "experimental": "(§2) Briefly, LN95 cells were seeded in a 12 well plate in complete media (RPMI+10% charcoal stripped FBS) at 250,000 cells per well and incubated at 37 C and 5% CO2 in a humidified incubator. After 24 hours, 0, 0.5, 1, 1.5, 2, or 2.5 uM of ARv7 morph 1 morpholino or control morpholino was diluted in complete media and added to each well. After 72 additional hours of incubation, media was removed and cells were collected in RNA lysis buffer.\n(§3) RNA was extracted using the Quick-RNA Miniprep kit (Zymo Research) following manufacturer's protocol. RNA was eluted in water and quantified using a Qubit fluorometer (Thermo Fisher). Reverse transcription (RT) reactions were performed using the ABI High Capacity cDNA Reverse Transcription Kit (Thermo Fisher) using 1 ug of RNA. RT reactions were incubated following manufacturer's protocol in a SimpliAmp thermocycler (Life Technologies). […] Fold Change from Scramble was calculated using the 2^-ΔΔCT method with TBP as the housekeeping gene and the control morpholino as the treatment control."}, "full length AR [4]": {"system": "full length AR", "experiment": "Full length AR level after morpholino treatment of LN95 cells (RT-qPCR)", "conditions": "0-2.5 uM in complete media, 72 h, FIG. 6B", "experimental": "as §2, §3"}}, "data": [{"substance": "mG*mC*mC*mA*mA*mC*mC*mC*mG*mG*mA*mA*mU*mU*mU*mU*mU*mC* mU*mA*mG*mU [ARv7 SSO-6ext]", "values": [{"measurement": "ARv7 (fold change from Scramble)", "setting": "ARv7 [1]; LN95, 100 nM transfected, FIG. 3", "value": "decrease"}]}, {"substance": "mC*mA*mG*mC*mC*mT*mT*mT*mC*mT*mT*mC*mA*mG*mG*mG*mT*mC (CAGCCTTTCTTCAGGGTC; all 2'-O-methyl, all phosphorothioate, T or U not given here) [Arv7 Cons1]", "values": [{"measurement": "ARv7 RNA (fold change from Scramble)", "setting": "ARv7 [1]; LN95, 12.5, 25, 50 nM transfected, 72 h, vs Scrambled SSO, FIG. 5", "value": "decreases ARv7 RNA in a dose-dependent manner"}]}, {"substance": "mG*mC*mC*mA*mA*mC*mC*mC*mG*mG*mA*mA*mU*mU*mU*mU*mU*mC [ARv7 SSO-6]", "values": [{"measurement": "ARv9", "setting": "ARv9", "value": "maintenance"}, {"measurement": "ARv7 (fold change from Scramble)", "setting": "ARv7 [1]; prostate cancer cell lines LN95, VCaP, 6.25, 25, 100, 400 nM transfected, 72 or 96 h, FIG. 2", "value": "dose dependent decrease"}, {"measurement": "prostate cancer cell proliferation (% confluence, fold change from 0 hr)", "setting": "LN95 cells", "value": "inhibits"}, {"measurement": "full length AR", "setting": "full length AR [2]", "value": "maintenance"}]}, {"substance": "TTGCCAACCCGGAATTTTTCTAGTATGA (all phosphorodiamidate morpholino (PMO)) [ARv7 morph 1]", "values": [{"measurement": "ARv7 (fold change from control morpholino)", "setting": "ARv7 [3]", "value": "dose-dependent decrease"}, {"measurement": "full length AR", "setting": "full length AR [4]", "value": "maintenance"}]}]}
